Data set [1] concerns Peripheral blood lymphocytes. The data set is described as follows: Proliferation of peripheral blood lymphocytes stimulated in vitro with anti-CD3 antibody. The format is in vivo, human. The protocol:
Nine subjects (3/group) were orally administered 0.2 mg, 1.0 mg or 5.0 mg of OKT3 daily for 5 days and immune parameters measured on days 5, 10 and 30 days (FIG. 12). Six subjects (3/group) received 7.5 mg of beta glucosylceramide in combination with 0.2 mg or 1.0 mg of OKT3 and 3 subjects received GC alone. All subjects were treated with 20 mg of Omeprazole (a proton pump inhibitor) during the 5 days of dosing. Dosing occurred in the morning before breakfast at the study site following a 8 hours fast. PBMCs were isolated from blood samples using Ficol Hypaque solution. To measure proliferation, 2×10^5 cells per well were cultured in triplicate in RPMI 1640 medium with 5% FBS (Biological Industries, Israel), 100 units/ml penicillin, 100 µg/ml streptomycin, 1% Glutamine, 1% non essential […], 1% sodium pyruvate and β-mercapto-ethanol (Biological Industries, Israel). Cells were stimulated with pre-coated antibodies (in 200 μl PBS/well):μg/well of anti OKT-3 mAb (Ortho Biotech Inc, New Jersey, USA) or 5 μg/ml soluble anti-CD3 mAb (eBioscience, CA, USA) or 2.5 μg/ml anti-CD28 mAb (R&D systems, MN, USA). One set of the above wells were added nothing while 10 μg of GC was added to a similar set for 72 h in culture at 37° C. with 5% CO2. Supernatants were collected for IL-13, IL-17 and IFN-γ. Enzyme-linked immunosorbent assays for these cytokines were performed according to the manufacturer's protocol (R&D Systems, Minneapolis, Minn.). For TGF-β, 2×10^5 cells per well were cultured in serum free media (Biotarget, Biological Industries, Israel). After collecting the supernatants, 1 µCi [^3H]thymidine (Amersham Biosciences, UK) was added to each well, and cells were harvested 18 h later. Proliferation was measured by scintillation counting. Unlike what has been reported for treatment with IV anti-CD3 (which is also given at a dose of 5 mg per day for five days), no decrease in the CD3+ lymphocyte counts or modulation of CD3 from the T cell surface was observed. […] An identical pattern was observed when results were calculated as stimulation indices.

Data set [2] relates to healthy human volunteers. The data set is described as follows: Clinical and laboratory follow-up, CD3+ counts and HAMA in healthy human volunteers. The following applies: oral. Format: in vivo. The protocol: * OKT3 (Orthoclone OKT-3) was purchased from Ortho Biotech Inc. (New Jersey, USA). Antibodies to OKT3 were evaluated on day 30 using the Human Anti-Mouse Antibodies (HAMA)-ELISA kit (MEDAC, Hamburg, Germany).
Healthy males (≥18 years) not on therapy for medical or other illnesses were enrolled in accordance with the guidelines of the Hebrew University-Hadassah Institutional Committee for Human Clinical Trials, and the approval of the Israel Ministry of Health Committee for Human Trials. Of 35 potential study subjects screened 18 met inclusion and exclusion criteria and were randomized to one of the treatment groups.
Nine subjects (3/group) were orally administered 0.2 mg, 1.0 mg or 5.0 mg of OKT3 daily for 5 days and immune parameters measured on days 5, 10 and 30 days (FIG. 12). Six subjects (3/group) received 7.5 mg of beta glucosylceramide in combination with 0.2 mg or 1.0 mg of OKT3 and 3 subjects received GC alone. All subjects were treated with 20 mg of Omeprazole (a proton pump inhibitor) during the 5 days of dosing. […]
All patients underwent a full medical history and physical examination, including review of adverse effects on days 1, 5, 10, and 30, along with complete blood counts, differential, electrolytes, liver and kidney function tests, and lipid profile. C-reactive protein and sedimentation rates were also evaluated. […]

For “OKT3: murine monoclonal anti-CD3 antibody (Orthoclone OKT-3, Ortho Biotech)”, the “subjects with increase in proliferation that peaked at day five” value in data set [1] (0.2 mg oral) is “one subject”; in data set [1] (1.0 mg oral daily for 5 days, three subjects), “all three subjects”; in data set [1] (5 mg oral), “two subjects”. Besides, the “CD3+ lymphocyte counts or modulation of CD3 from the T cell surface” value in data set [2] was “no decrease”. Also, the “anti-OKT3 (HAMA) antibodies” value in data set [2] (day 30) was “no subject developed”.
